Data set [1] has as its system Staphylococcus aureus. As to the kind of experiment: Drug binding to daptomycin-nonsusceptible Staphylococcus aureus isolate 701 bloodstream form isolated from patient with endocarditis at 40 ug after 10 mins by radial diffusion assay. In kind it is ADME, organism-based.
Data set [2] deals with Staphylococcus aureus. As to the kind of experiment: Drug binding to daptomycin-nonsusceptible Staphylococcus aureus isolate 703 bloodstream form isolated from patient with endocarditis at 40 ug after 10 mins by radial diffusion assay. Type of data set: ADME, organism-based.
For data set [3], the system named is Staphylococcus aureus. As to the kind of experiment: Drug binding to methicillin-susceptible Staphylococcus aureus isolate 616 bloodstream form isolated from patient with endocarditis at 40 ug after 10 mins by radial diffusion assay. The following applies: in vivo. Type of data set: ADME, organism-based.
Data set [4] concerns Staphylococcus aureus. The data set is described as follows: Drug binding to daptomycin-transitional Staphylococcus aureus isolate 629 bloodstream form isolated from patient with endocarditis at 40 ug after 10 mins by radial diffusion assay. In kind it is ADME, organism-based.
Data set [5] relates to Staphylococcus aureus. The data set is described as follows: Induction of autolysis in daptomycin-nonsusceptible Staphylococcus aureus isolate 703 bloodstream form isolated from patient 6 ug/ml within 4 to 24 hrs. In kind it is functional, organism-based.
In data set [6] the test system is Staphylococcus aureus. As to the kind of experiment: Antibacterial activity against daptomycin-transitional Staphylococcus aureus isolate 629 bloodstream form isolated from patient with endocarditis by Etest. Type of data set: functional.
For data set [7], the system named is Staphylococcus aureus. As to the kind of experiment: Antibacterial activity against daptomycin-transitional Staphylococcus aureus isolate 629 bloodstream form isolated from patient with endocarditis assessed as inhibition on heterogeneous subpopulation survival rate at 0.5 and 1 ug/ml after 48 hrs. In kind it is functional, organism-based.
Data set [8] concerns Staphylococcus aureus. As to the kind of experiment: Reduction of membrane permeabilization in daptomycin-transitional Staphylococcus aureus isolate 629 bloodstream form isolated from patient with endocarditis assessed as calcein retention at 1.5 ug/ml after 120 mins by fluorometric analysis. Type of data set: functional, organism-based.
Data set [9] concerns Staphylococcus aureus. The data set is described as follows: Drug binding to daptomycin-nonsusceptible Staphylococcus aureus isolate 701 bloodstream form isolated from patient with endocarditis at 6 ug after 10 mins by radial diffusion assay. In kind it is ADME, organism-based.
For data set [10], the system named is Staphylococcus aureus. The data set is described as follows: Reduction of membrane permeabilization in daptomycin-nonsusceptible Staphylococcus aureus isolate 703 bloodstream form isolated from patient with endocarditis assessed as calcein retention at 1.5 ug/ml after 120 mins by fluorometric analysis. In kind it is functional, organism-based.
Data set [11] has as its system Staphylococcus aureus. As to the kind of experiment: Drug binding to daptomycin-transitional Staphylococcus aureus isolate 629 bloodstream form isolated from patient with endocarditis at 6 ug after 10 mins by radial diffusion assay. Type of data set: ADME, organism-based.
Data set [12] has as its system Staphylococcus aureus. As to the kind of experiment: Induction of autolysis in methicillin-susceptible Staphylococcus aureus isolate 616 bloodstream form isolated from patient 6 ug/ml within 4 to 24 hrs. In kind it is functional, organism-based.
Data set [13] has as its system Staphylococcus aureus. As to the kind of experiment: Induction of cell membrane depolarization in daptomycin-nonsusceptible Staphylococcus aureus isolate 703 bloodstream form isolated from patient with endocarditis at 0.75 ug/ml after 60 mins by flow cytometry. Type of data set: functional, organism-based.
Data set [14] relates to Staphylococcus aureus. The data set is described as follows: Induction of cell membrane depolarization in daptomycin-transitional Staphylococcus aureus isolate 629 bloodstream form isolated from patient with endocarditis at 6 ug/ml after 60 mins by flow cytometry. In kind it is functional, organism-based.
For data set [15], the system named is Staphylococcus aureus. As to the kind of experiment: Induction of cell membrane depolarization in daptomycin-nonsusceptible Staphylococcus aureus isolate 701 bloodstream form isolated from patient with endocarditis at 6 ug/ml after 60 mins by flow cytometry. Type of data set: functional, organism-based.
Data set [16] relates to Staphylococcus aureus. As to the kind of experiment: Drug binding to daptomycin-nonsusceptible Staphylococcus aureus isolate 703 bloodstream form isolated from patient with endocarditis at 6 ug after 10 mins by radial diffusion assay. Type of data set: ADME, organism-based.
Data set [17] has as its system Staphylococcus aureus. As to the kind of experiment: Antibacterial activity against daptomycin-nonsusceptible Staphylococcus aureus isolate 701 bloodstream form isolated from patient with endocarditis assessed as inhibition on heterogeneous subpopulation survival rate at 0.5 and 4 ug/ml after 48 hrs. In kind it is functional, organism-based.
The test system of data set [18] is Staphylococcus aureus. As to the kind of experiment: Induction of cell membrane depolarization in daptomycin-nonsusceptible Staphylococcus aureus isolate 703 bloodstream form isolated from patient with endocarditis at 40 ug/ml after 60 mins by flow cytometry. In kind it is functional, organism-based.
Data set [19] deals with Staphylococcus aureus. As to the kind of experiment: Reduction of membrane permeabilization in daptomycin-nonsusceptible Staphylococcus aureus isolate 701 bloodstream form isolated from patient with endocarditis assessed as calcein retention at 1.5 ug/ml after 120 mins by fluorometric analysis. In kind it is functional, organism-based.
Data set [20] has as its system Staphylococcus aureus. The data set is described as follows: Induction of cell membrane depolarization in methicillin-susceptible Staphylococcus aureus isolate 616 bloodstream form isolated from patient with endocarditis at 0.75 ug/ml after 60 mins by flow cytometry. In kind it is functional, organism-based.
For data set [21], the system named is Staphylococcus aureus. The data set is described as follows: Induction of cell membrane depolarization in methicillin-susceptible Staphylococcus aureus isolate 616 bloodstream form isolated from patient with endocarditis at 40 ug/ml after 60 mins by flow cytometry. In kind it is functional, organism-based.
Data set [22] has as its system Staphylococcus aureus. The data set is described as follows: Antibacterial activity against daptomycin-nonsusceptible Staphylococcus aureus isolate 701 bloodstream form isolated from patient with endocarditis by Etest. Type of data set: functional.
Data set [23] relates to Staphylococcus aureus. As to the kind of experiment: Reduction of membrane permeabilization in methicillin-susceptible Staphylococcus aureus isolate 616 bloodstream form isolated from patient with endocarditis assessed as calcein retention at 1.5 ug/ml after 120 mins by fluorometric analysis. Type of data set: functional, organism-based.
Data set [24] deals with Staphylococcus aureus. As to the kind of experiment: Induction of autolysis in daptomycin-nonsusceptible Staphylococcus aureus isolate 701 bloodstream form isolated from patient 6 ug/ml within 4 to 24 hrs. In kind it is functional, organism-based.
In data set [25] the test system is Staphylococcus aureus. The data set is described as follows: Induction of cell membrane depolarization in daptomycin-nonsusceptible Staphylococcus aureus isolate 701 bloodstream form isolated from patient with endocarditis at 0.75 ug/ml after 60 mins by flow cytometry. Type of data set: functional, organism-based.
Data set [26] relates to Staphylococcus aureus. The data set is described as follows: Drug binding to methicillin-susceptible Staphylococcus aureus isolate 616 bloodstream form isolated from patient with endocarditis at 6 ug after 10 mins by radial diffusion assay. The following applies: in vivo. In kind it is ADME, organism-based.
In data set [27] the test system is Staphylococcus aureus. As to the kind of experiment: Antibacterial activity against Staphylococcus aureus SA113 harboring null mutation in mprF gene by Etset. Type of data set: functional.
The test system of data set [28] is Staphylococcus aureus. The data set is described as follows: Induction of cell membrane depolarization in daptomycin-nonsusceptible Staphylococcus aureus isolate 701 bloodstream form isolated from patient with endocarditis at 40 ug/ml after 60 mins by flow cytometry. Type of data set: functional, organism-based.
The subject of data set [29] is Staphylococcus aureus. As to the kind of experiment: Induction of cell membrane depolarization in daptomycin-nonsusceptible Staphylococcus aureus isolate 703 bloodstream form isolated from patient with endocarditis at 6 ug/ml after 60 mins by flow cytometry. In kind it is functional, organism-based.
Data set [30] concerns Staphylococcus aureus. As to the kind of experiment: Antibacterial activity against Staphylococcus aureus SA113 by Etset. Type of data set: functional.
Data set [31] concerns Staphylococcus aureus. As to the kind of experiment: microbe, parasite or virus in culture. Conditions: 616.
Description: Antibacterial activity against methicillin-susceptible Staphylococcus aureus isolate 616 bloodstream form isolated from patient with endocarditis by Etest
The test system of data set [32] is Staphylococcus aureus. As to the kind of experiment: Induction of cell membrane depolarization in methicillin-susceptible Staphylococcus aureus isolate 616 bloodstream form isolated from patient with endocarditis at 6 ug/ml after 60 mins by flow cytometry. Type of data set: functional, organism-based.
Data set [33] concerns Staphylococcus aureus. The data set is described as follows: Induction of cell membrane depolarization in daptomycin-transitional Staphylococcus aureus isolate 629 bloodstream form isolated from patient with endocarditis at 40 ug/ml after 60 mins by flow cytometry. In kind it is functional, organism-based.
For data set [34], the system named is Staphylococcus aureus. The data set is described as follows: Induction of cell membrane depolarization in daptomycin-transitional Staphylococcus aureus isolate 629 bloodstream form isolated from patient with endocarditis at 0.75 ug/ml after 60 mins by flow cytometry. Type of data set: functional, organism-based.
The subject of data set [35] is Staphylococcus aureus. As to the kind of experiment: Antibacterial activity against daptomycin-nonsusceptible Staphylococcus aureus isolate 703 bloodstream form isolated from patient with endocarditis by Etest. Type of data set: functional.
In data set [36] the test system is Staphylococcus aureus. The data set is described as follows: Antibacterial activity against methicillin-susceptible Staphylococcus aureus isolate 616 bloodstream form isolated from patient with endocarditis assessed as inhibition on heterogeneous subpopulation survival rate at 0.5 and 1 ug/ml after 48 hrs. In kind it is functional, organism-based.
Data set [37] concerns Staphylococcus aureus. The data set is described as follows: Antibacterial activity against daptomycin-nonusceptible Staphylococcus aureus isolate 703 bloodstream form isolated from patient with endocarditis assessed as inhibition on heterogeneous subpopulation survival rate at 0.5 and 4 ug/ml after 48 hrs. In kind it is functional, organism-based.

Converted amounts (≈) assume the structure as drawn. The source made the active and inactive calls. No cut-off for these calls is given here.

For H-ALYKKFKKKLLKSLKRLG-OH, the Drug uptake in the data set with Staphylococcus aureus [1] came out at 11.7 µg/mL; in the data set on Staphylococcus aureus [2] it was 8 µg/mL; with Staphylococcus aureus [3], 12.4 µg/mL; in the data set with Staphylococcus aureus [4] it was 11.7 µg/mL.
Regarding `CCCCCCCCCC(=O)N[C@@H](Cc1c[nH]c2ccccc12)C(=O)N[C@H](CC(N)=O)C(=O)N[C@@H](CC(=O)O)C(=O)N[C@@H]1C(=O)NCC(=O)N[C@@H](CCCN)C(=O)N[C@@H](CC(=O)O)C(=O)N[C@H](C)C(=O)N[C@@H](CC(=O)O)C(=O)NCC(=O)N[C@H](CO)C(=O)N[C@@H]([C@H](C)CC(=O)O)C(=O)N[C@@H](CC(=O)c2ccccc2N)C(=O)O[C@@H]1C`, the outcome in the data set with Staphylococcus aureus [5], with Staphylococcus aureus [7], with Staphylococcus aureus [13], in the data set on Staphylococcus aureus [14], with Staphylococcus aureus [15] and in the data set on Staphylococcus aureus [17] was inactive. The outcome in the data set on Staphylococcus aureus [18], in the data set with Staphylococcus aureus [21], in the data set on Staphylococcus aureus [23], in the data set with Staphylococcus aureus [24], with Staphylococcus aureus [25] and in the data set on Staphylococcus aureus [28] was inactive. The outcome in the data set with Staphylococcus aureus [29], in the data set on Staphylococcus aureus [33], with Staphylococcus aureus [34], with Staphylococcus aureus [36] and with Staphylococcus aureus [37] was inactive. Besides, the MIC came to 0.75 µg/mL (≈ 0.463 µM) against Staphylococcus aureus [6]; 2 µg/mL (≈ 1.23 µM) against Staphylococcus aureus [22]; 0.094 µg/mL (≈ 0.058 µM) in the data set with Staphylococcus aureus [27]; 0.38 µg/mL (≈ 0.234 µM) against Staphylococcus aureus [30]; 0.5 µg/mL (≈ 0.309 µM) against Staphylococcus aureus [31]; 2 µg/mL (≈ 1.23 µM) against Staphylococcus aureus [35]. The result with Staphylococcus aureus [8], in the data set with Staphylococcus aureus [10], with Staphylococcus aureus [12], in the data set on Staphylococcus aureus [19], with Staphylococcus aureus [20] and in the data set on Staphylococcus aureus [32] was Active. Moreover, the Drug uptake with Staphylococcus aureus [9] came out at 2.32 µg/mL; with Staphylococcus aureus [11], 1.61 µg/mL; with Staphylococcus aureus [16] it was 2.24 µg/mL; with Staphylococcus aureus [26], 5.4 µg/mL.

The values are drawn from ChEMBL document CHEMBL1151454, “Failures in clinical treatment of Staphylococcus aureus Infection with daptomycin are associated with alterations in surface charge, membrane phospholipid asymmetry, and drug binding” (Antimicrob Agents Chemother, 2008).
